Measured values reported in publication PMC8770593 (Nature Communications, 2022).
Numbering of substitutions follows the chain as printed. “And” between values parts separate entries of the source, which are not always exact repeats. Equal values may be shown once.

Key:
[1] = target: T1, α1BAR-α2C(L^45.52) chimera (V197^45.52→L) (Homo sapiens, UniProt P35368, V197L); assay: HTRF ligand-binding assay on whole transfected HEK293T/17 cells (QAPB saturation; competition with QAPB tracer)
T1 sequence (P35368 35-520 V197L): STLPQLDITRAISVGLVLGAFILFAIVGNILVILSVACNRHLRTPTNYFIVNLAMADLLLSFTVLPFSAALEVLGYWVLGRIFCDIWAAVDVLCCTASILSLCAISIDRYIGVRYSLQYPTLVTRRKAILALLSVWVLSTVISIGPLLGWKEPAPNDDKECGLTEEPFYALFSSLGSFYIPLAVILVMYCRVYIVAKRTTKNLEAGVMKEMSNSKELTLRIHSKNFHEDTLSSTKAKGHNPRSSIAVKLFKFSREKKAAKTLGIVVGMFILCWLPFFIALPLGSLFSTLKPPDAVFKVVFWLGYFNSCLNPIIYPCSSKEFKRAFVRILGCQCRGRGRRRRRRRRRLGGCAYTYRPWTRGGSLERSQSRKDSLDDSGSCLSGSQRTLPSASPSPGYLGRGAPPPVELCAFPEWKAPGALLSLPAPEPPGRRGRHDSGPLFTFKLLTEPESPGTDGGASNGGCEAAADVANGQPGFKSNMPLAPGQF

α1BAR-α2C(YLLY) chimera = target: T2, α1BAR-α2C(YLLY) chimera (Homo sapiens, UniProt P35368, A122L/L314Y/V197L/W121Y); assay: as above
T2 sequence (P35368 35-520 W121Y/A122L/V197L/L314Y): T1 sequence (P35368 35-520 V197L) with W87Y, A88L, L280Y

[2] = target: α1BARXTAL-ΔD12 (stabilized α1BAR without DARPin D12) (Homo sapiens, UniProt P35368, D191Y/DEL249-283/E194V/F334L/G183V/I116T/P349L/S150Y/S168C/S95C/T295M/V124M/V333L); assay: HTRF competition ligand-binding assay on whole transfected HEK293T/17 cells (QAPB tracer); settings: construct α1BARXTAL-∆D12, competition with Cyclazosin against QAPB tracer, one value per experiment date, read-out: Calculated pKi values (converted)
[3] = system: α1BAR expressed in mammalian cells; settings: radioligand binding; ref Proudman, R. G. W., et al., Pharmacol. Res. Perspect. 8 (2020); cited from earlier work
[4] = target: rat cerebral cortex tissue containing all three α2AR subtypes; set-up: method as in Giardinà, D. et al., J. Med. Chem. 39, 4602-4607 (1996); settings: ref Giardinà, D. et al., J. Med. Chem. 39, 4602-4607 (1996); cited from earlier work
wild-type α1BAR = target: T3, wild-type α1BAR (Homo sapiens, UniProt P35368); assay: HTRF ligand-binding assay on whole transfected HEK293T/17 cells (QAPB saturation; competition with QAPB tracer)
T3 sequence (P35368 35-520 limits assumed): T1 sequence (P35368 35-520 V197L) with L163V

wild-type α2CAR = target: T4, wild-type α2CAR (Homo sapiens, UniProt P18825); assay: as above; settings: pKi (competition binding), competition with 50 nM QAPB tracer, whole cells, mean
T4 sequence (P18825 37-462 limits assumed): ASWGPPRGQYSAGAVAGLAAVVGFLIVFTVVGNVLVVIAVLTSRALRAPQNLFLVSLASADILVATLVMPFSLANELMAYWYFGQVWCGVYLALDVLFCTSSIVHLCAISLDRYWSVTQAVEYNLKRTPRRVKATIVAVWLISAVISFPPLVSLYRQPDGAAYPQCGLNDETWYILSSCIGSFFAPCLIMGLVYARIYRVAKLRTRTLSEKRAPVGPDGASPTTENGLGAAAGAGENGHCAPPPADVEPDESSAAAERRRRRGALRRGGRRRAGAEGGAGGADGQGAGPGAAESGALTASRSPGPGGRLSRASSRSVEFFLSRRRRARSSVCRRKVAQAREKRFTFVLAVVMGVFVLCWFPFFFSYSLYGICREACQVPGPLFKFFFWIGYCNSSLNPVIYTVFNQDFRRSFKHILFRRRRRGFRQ

[5] = target: α1BAR-α2C(YLLY;N^2.64) chimera (Homo sapiens, UniProt P35368, A122L/L105N/L314Y/V197L/W121Y); assay: as above
Sequence of α1BAR-α2C(YLLY;N^2.64) chimera (P35368 35-520 L105N/W121Y/A122L/V197L/L314Y): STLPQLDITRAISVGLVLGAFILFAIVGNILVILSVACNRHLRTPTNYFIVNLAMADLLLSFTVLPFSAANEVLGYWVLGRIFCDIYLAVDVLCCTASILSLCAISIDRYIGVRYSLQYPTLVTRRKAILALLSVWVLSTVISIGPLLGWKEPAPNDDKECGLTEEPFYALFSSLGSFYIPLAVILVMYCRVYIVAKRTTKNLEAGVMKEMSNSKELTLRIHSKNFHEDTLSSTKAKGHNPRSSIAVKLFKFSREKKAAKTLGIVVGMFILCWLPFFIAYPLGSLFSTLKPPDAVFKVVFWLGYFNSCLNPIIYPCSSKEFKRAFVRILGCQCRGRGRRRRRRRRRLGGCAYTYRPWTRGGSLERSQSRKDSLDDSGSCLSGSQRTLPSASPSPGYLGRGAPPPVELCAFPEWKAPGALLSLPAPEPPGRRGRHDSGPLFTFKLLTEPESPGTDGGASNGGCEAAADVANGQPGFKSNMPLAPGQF

Sequence of α1BARXTAL-ΔD12 (stabilized α1BAR without DARPin D12) (P35368 with tags, fused parts or gaps with the stated changes): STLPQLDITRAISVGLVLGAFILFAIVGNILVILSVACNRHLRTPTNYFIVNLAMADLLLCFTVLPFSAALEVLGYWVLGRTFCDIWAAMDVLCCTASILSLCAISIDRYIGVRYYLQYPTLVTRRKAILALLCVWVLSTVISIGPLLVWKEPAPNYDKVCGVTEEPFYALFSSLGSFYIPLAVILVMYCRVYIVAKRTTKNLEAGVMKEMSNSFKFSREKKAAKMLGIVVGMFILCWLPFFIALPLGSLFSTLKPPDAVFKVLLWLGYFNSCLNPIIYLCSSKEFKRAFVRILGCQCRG

## COc1cc2nc(N3CCN(C(=O)c4ccco4)[C@H]4CCCC[C@H]43)nc(N)c2cc1OC (relative stereo) [cyclazosin, [4-(4-amino-6,7-dimethoxyquinazolin-2-yl)-cis-octahydroquinoxalin-1-yl] furan-2-ylmethanone]
[1]; V197^45.52→L vs wild-type α1BAR
  effect of the substitution on affinity: negligible
[1]; pKi (competition binding), competition with 2 nM QAPB tracer, whole cells, mean
  Ki: 1.1 nM
α1BAR-α2C(YLLY) chimera; pKi (competition binding), competition with 50 nM QAPB tracer, whole cells, mean
  Ki: 3.72 nM
α1BAR-α2C(YLLY) chimera; α1BAR-α2C(YLLY) vs wild-type α1BAR
  weaker affinity compared to wild-type α1BAR: ~4 fold
[2]
  Ki: 9.9 nM and 6.69 nM and 2.8 nM
[3]
  affinity as pK value (RLBA): 8.68
[4]
  affinity as pK value (RLBA): 6.17
wild-type α1BAR; Ki, competition with 2 nM QAPB tracer, whole cells
  Ki: 1.02 nM
wild-type α1BAR; ratio of affinities α1BAR vs α2CAR
  higher affinity for wild-type α1BAR compared to α2CAR: ~330 fold
wild-type α2CAR
  Ki: 339 nM
[5]
  Ki: 7.24 nM
